Assay [1] in a line: P. falciparum Dd2 growth inhibitors, dose response, SYBR Green, cherry-picked samples (AID 1159567). Format: functional, cell-based.
A short description of the next assay: cells. Format: functional.
The target of the next assay is T1, Estrogen receptor (Homo sapiens, UniProt P03372).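 Also: potency for inhibiting coactivator peptide recruitment to the receptor.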
T1 sequence (P03372 whole entry): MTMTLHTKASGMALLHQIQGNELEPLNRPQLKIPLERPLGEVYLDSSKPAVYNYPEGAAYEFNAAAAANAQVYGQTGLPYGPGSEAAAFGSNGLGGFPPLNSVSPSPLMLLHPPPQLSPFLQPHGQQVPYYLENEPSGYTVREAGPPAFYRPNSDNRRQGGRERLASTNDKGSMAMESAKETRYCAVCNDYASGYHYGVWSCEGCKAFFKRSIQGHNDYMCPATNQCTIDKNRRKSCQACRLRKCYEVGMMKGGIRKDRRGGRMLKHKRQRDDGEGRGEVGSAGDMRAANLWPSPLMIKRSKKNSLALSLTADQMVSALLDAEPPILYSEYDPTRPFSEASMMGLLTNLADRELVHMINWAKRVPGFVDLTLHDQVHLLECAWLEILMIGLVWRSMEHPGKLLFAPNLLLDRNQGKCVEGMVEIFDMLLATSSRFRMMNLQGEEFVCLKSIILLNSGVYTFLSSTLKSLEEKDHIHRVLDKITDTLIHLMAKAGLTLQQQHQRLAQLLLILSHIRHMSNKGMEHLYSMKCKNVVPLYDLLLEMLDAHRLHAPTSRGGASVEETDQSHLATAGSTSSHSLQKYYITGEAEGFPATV

The nature of assay [2]: viability of HCT116 lacking mutant beta-catenin – cell-based, human colon tumor, dose response (AID 1045).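 Also: HCT116 colon tumor cells with beta catenin knocked out; cells exposed to compound for 60 hours.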 Format: functional.
Assay [3] is described as follows: viability of PTEN-deleted HCT116 cells – cell-based, HCT116 PTEN knockout, dose response (AID 1047).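 Also: HCT116 colon tumor cells with PTEN knocked out; cells exposed to compound for 60 hours before readout; potency for loss of cell viability measured by luminescence.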 It is filed as functional.
Assay [4] in a line: NIH-3T3 fibroblast cytotoxicity, dose response, cytotoxicity control, cell-based, fluorescence, Alamar Blue, secondary assay (AID 2327).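 Also: NIH-3T3 mouse fibroblasts cultured with fluconazole at 8 µg/mL.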 It is filed as functional.
The nature of assay [5]: fluconazole-exposed Candida albicans growth modulators – fluorescence, retest, confirmation (AID 2467). It is filed as functional, cell-based.
The nature of assay [6]: blockers of HIV-1 envelope-mediated cell-cell fusion – cherry-pick, dose response (AID 652057). Format: functional, cell-based.
A short description of assay [7]: HIV-1 AD8 envelope cell-cell fusion blockers – cherry-pick, dose response (AID 652062).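 Also: luciferase signal from cell-cell fusion driven by HIV-1 clade B AD8 Env; potency is for inhibitors of fusion seen as a drop in luminescence.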 It is filed as functional, cell-based.
Another assay addresses Fatty acid synthase (Homo sapiens, UniProt P49327). The assay is described as follows: inhibition of human FAS-TE enzyme activity – biochemical, kinetic fluorescence intensity, dose response (AID 624326).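 Also: rate of fluorescence rise from hydrolysis of a fluorogenic O-methyl fluorescein ester substrate.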 It is filed as functional.
Assay [8] is described as follows: alpha-synuclein stem-loop luciferase translation blockers – H4 neuroglioma cells, luminescence, confirmation (AID 1988). It is filed as functional, cell-based.
The nature of assay [9]: Luminescence Cell-Based Dose Response HTS to Identify Inhibitors of 5'UTR Stem-Loop Driven Prion Protein mRNA Translation in H4 Neuroglioblastoma Cells. [Related pubchem assays: 1827 (Project Summary), 1813 (Primary HTS)]. It is filed as functional.
Assay [10] can be described thus: luciferase reporter signal suppression in cells – H4 neuroglioma cells, luminescence, dose response (AID 1990). Format: functional, cell-based.
Assay [11] in a line: NIH3T3 cell viability loss – ATP luminescence, mouse fibroblasts, counter-screen, dose response (AID 2010).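 Also: cells exposed to compound for about 90 hours before reading.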 It is filed as functional, cell-based.
The nature of assay [12]: Trypanosoma cruzi growth suppression in host cells – NIH3T3 host cells, beta-gal luminescence, confirmation (AID 2044).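 Also: intracellular parasites grown in NIH/3T3 mouse fibroblasts as host cells; luminescent beta-galactosidase reporter signal from transgenic T. cruzi replicating inside host cells; inhibitors lower the luminescence signal.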 Format: functional, cell-based.
In a further assay the target is T2, Protein RecA (Mycobacterium tuberculosis, UniProt P9WHJ3).
T2 sequence (P9WHJ3 whole entry): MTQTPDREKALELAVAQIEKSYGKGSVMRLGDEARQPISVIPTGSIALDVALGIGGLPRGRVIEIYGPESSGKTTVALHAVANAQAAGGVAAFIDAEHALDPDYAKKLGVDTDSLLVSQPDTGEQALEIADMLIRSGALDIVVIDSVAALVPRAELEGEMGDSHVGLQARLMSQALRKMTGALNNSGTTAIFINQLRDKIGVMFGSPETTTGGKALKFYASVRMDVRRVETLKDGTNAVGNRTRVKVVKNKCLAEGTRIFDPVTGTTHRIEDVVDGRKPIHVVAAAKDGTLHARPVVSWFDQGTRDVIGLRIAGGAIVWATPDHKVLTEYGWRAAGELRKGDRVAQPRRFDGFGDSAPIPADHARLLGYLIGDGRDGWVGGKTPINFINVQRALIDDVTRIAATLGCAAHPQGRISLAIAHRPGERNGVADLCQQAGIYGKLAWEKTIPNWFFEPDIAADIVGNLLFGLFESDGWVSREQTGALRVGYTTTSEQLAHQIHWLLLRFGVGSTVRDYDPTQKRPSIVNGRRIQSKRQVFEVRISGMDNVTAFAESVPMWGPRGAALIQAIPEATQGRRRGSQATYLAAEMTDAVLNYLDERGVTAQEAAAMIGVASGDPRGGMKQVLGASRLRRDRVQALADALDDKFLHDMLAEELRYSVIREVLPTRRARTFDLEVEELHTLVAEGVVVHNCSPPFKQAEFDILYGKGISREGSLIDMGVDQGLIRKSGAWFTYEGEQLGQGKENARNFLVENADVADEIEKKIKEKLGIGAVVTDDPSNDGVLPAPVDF
The assay is described as follows: Fluorescence Cell-Free Homogeneous Dose Retest to Identify Inhibitors of RecA-Intein Splicing Activity. [Related pubchem assays (depositor defined):AID2097, AID2223, AID489010, AID492950]. Format: functional.

The target of assay [13] is T3, Replicative DNA helicase DnaB (Mycobacterium tuberculosis, UniProt P9WMR3).
T3 sequence (P9WMR3 whole entry): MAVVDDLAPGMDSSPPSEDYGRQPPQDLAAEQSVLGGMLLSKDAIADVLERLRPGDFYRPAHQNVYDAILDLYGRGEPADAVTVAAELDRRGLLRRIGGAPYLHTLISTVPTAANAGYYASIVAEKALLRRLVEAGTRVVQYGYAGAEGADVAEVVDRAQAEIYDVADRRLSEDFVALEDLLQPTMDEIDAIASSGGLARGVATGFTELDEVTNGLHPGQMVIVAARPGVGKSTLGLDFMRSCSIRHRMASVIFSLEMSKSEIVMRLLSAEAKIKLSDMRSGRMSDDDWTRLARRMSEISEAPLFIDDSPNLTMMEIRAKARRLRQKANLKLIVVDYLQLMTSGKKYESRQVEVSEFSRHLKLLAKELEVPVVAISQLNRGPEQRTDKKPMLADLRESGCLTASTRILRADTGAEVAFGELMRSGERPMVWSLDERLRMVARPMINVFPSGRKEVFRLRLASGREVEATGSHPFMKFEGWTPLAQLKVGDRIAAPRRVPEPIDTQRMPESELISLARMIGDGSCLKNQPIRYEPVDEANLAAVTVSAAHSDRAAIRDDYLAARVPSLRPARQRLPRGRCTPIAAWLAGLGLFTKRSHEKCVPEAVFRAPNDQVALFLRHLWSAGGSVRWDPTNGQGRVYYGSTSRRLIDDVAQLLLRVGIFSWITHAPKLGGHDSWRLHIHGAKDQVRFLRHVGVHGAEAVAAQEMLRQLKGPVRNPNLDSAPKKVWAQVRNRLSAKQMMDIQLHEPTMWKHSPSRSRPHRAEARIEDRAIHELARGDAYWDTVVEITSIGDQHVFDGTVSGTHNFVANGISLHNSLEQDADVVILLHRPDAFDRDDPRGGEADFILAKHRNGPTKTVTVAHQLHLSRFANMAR
The assay is described as follows: DnaB intein splicing inhibitors, dose response, biochemical, cell-free fluorescence (AID 449749). Format: functional.

The structures appear in SMILES notation. Activity calls are given as the source filed them. Where only a bound is given, the exact number is not on record here.

The results in this text go back to ChEMBL document CHEMBL1201862, “PubChem BioAssay data set” (2004).

Fatty acid synthase, sequence (P49327 whole entry): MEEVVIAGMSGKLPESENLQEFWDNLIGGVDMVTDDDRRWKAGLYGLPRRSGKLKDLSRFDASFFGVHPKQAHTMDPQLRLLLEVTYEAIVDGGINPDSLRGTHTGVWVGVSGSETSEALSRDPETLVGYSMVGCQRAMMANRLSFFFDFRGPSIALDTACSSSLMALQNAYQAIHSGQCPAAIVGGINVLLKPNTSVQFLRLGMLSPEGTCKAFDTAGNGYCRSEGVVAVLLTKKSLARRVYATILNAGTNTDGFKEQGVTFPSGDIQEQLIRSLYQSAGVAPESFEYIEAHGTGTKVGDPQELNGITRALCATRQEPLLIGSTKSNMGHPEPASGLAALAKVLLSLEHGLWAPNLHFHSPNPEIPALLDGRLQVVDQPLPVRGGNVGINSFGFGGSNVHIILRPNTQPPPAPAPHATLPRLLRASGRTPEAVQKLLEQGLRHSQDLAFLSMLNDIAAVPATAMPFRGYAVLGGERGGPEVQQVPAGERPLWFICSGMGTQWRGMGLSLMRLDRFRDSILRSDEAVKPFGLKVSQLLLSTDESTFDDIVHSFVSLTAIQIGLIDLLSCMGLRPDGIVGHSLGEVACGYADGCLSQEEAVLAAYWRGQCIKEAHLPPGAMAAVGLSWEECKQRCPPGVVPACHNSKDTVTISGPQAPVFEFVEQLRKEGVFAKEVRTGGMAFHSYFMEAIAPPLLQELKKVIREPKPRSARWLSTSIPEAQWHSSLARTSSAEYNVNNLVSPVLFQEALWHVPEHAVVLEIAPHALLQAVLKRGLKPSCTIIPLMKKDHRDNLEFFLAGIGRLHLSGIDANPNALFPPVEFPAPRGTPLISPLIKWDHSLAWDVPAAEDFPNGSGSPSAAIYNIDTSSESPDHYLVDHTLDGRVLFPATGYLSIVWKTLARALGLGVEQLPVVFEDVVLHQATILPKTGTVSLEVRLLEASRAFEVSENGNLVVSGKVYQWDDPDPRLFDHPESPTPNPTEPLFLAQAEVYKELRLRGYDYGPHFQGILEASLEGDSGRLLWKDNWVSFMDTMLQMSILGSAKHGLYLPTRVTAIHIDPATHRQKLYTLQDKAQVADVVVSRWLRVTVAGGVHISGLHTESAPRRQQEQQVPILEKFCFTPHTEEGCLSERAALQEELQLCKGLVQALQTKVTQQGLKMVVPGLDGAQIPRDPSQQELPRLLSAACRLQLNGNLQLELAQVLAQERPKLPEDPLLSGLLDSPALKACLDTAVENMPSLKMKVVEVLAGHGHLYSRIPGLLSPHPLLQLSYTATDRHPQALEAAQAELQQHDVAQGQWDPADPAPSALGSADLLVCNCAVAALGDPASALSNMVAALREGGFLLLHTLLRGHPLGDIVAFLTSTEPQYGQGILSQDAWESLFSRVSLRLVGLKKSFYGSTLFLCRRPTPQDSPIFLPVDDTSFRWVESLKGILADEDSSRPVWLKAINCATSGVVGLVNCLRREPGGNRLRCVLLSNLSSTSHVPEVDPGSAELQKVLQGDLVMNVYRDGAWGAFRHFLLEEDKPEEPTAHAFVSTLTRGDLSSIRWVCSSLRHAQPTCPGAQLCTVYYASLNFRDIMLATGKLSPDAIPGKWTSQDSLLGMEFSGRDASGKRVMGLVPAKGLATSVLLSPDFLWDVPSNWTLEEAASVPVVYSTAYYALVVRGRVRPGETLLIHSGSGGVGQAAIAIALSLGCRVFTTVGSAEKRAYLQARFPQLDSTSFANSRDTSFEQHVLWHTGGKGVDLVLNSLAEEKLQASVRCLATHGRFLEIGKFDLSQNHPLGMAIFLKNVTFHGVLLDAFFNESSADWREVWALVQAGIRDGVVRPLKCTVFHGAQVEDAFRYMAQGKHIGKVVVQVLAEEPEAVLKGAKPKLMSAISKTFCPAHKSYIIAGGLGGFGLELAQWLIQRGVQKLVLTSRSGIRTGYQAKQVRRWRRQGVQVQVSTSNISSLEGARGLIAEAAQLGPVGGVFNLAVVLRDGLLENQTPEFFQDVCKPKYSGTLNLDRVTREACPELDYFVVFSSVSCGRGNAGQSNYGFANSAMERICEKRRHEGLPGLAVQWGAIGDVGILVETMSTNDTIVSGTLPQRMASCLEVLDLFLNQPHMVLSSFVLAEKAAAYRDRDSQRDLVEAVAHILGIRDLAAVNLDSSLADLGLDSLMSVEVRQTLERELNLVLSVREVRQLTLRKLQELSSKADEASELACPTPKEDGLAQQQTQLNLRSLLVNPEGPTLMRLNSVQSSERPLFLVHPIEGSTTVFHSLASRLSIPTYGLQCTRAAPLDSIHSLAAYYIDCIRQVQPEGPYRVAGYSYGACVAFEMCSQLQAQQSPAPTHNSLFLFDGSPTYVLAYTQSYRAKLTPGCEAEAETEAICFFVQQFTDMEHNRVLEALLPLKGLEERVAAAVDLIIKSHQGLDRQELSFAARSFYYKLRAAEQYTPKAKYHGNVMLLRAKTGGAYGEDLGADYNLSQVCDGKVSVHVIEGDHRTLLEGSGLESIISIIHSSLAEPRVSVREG

On to `CCS(=O)(=O)N1CCCCN2[C@H](CO)[C@H](c3ccc(-c4cccc(C#N)c4)cc3)[C@@H]2C1`, for which, in [1], the AC50 was 12.5 µM (active).
On to `O=C(Nc1nnc(C2=COCCO2)o1)c1ccc(F)cc1`, for which the IC50 in “cells” is 6.55 µM (active).
On the same count and under the same terms, then `Cc1cc(C)n2nc(S(=O)(=O)Nc3c(Cl)cccc3Cl)nc2n1`, with 5.34 µM (active).
Regarding `N#C/C(=C(\O)Nc1ccc(Cl)cc1)c1nc2ccccc2[nH]1`, the IC50 on Estrogen receptor is 27.1 µM (active). Also, the EC50 in assay [2] was 35.1 µM (active); in assay [3], 31.9 µM (active).
For `CSc1nc(NCc2ccco2)c2ccccc2n1`, at Estrogen receptor, the IC50 was > 50 µM (not active).
Consider `COCC(=O)N1CC2(C1)CN(Cc1ccccc1F)[C@@H](CO)c1[nH]c3cc(OC)ccc3c12`, for which the half-maximal activity concentration (AC50) in [1] was 6.55 µM (active).
For the compound `CCOc1nc(NCCc2ccc(OC)c(OC)c2)nc(N2CCN(c3ccc(OC)cc3)CC2)n1`, the EC50 was 10.5 µM (active) in [2] and 6.42 µM (active) in [3].
As for `CO[C@@H]1CN(C)C(=O)c2cc(NC(=O)c3ccc(Oc4ccccc4)cc3)ccc2OC[C@H](C)NC[C@@H]1C`, the AC50 in assay [1] is 5.99 µM (active).
Take `COc1ccc(-c2[nH]nc(C)c2-c2cnn(-c3ccccc3)c2)c(O)c1`: the EC50 is > 160 µM (inactive) in [4] and 3.77 µM (active) in [5].
In the case of `CCC(=O)Nc1nonc1-c1nc2ccccc2n1N(C(=O)CC)C(=O)CC`, the IC50 against Estrogen receptor is > 50 µM (not active).
With `CCCn1nnc(NC(=O)COc2ccc(CC)cc2)n1`, the IC50 in “cells” was 27.6 µM (active).
For the compound `COc1ccc2c3c(n(C)c2c1)[C@@H](CO)N(C(=O)Nc1ccc(F)cc1)CC31CN(C(=O)c2ccccc2F)C1`, the AC50 in assay [1] is 4.35 µM (active).
Regarding `COc1ccccc1-c1ccc2c(c1)O[C@H](CN(C)S(=O)(=O)c1ccc(C)cc1)[C@H](C)CN([C@@H](C)CO)S2(=O)=O`, the AC50 in [6] was 2.84 µM (active); in assay [7] it was 2.97 µM (active).
As for `O=C(COc1ccc2c(-c3ccccc3)cc(=O)oc2c1)N[C@@H](Cc1c[nH]c2ccc(O)cc12)C(=O)O`, the IC50 at Fatty acid synthase was 6.9 µM (active).
As for `COc1cc(C(=O)O/N=C2/C=CC(=O)C(C)=C2C)cc(OC)c1OC`, the EC50 is 19 µM (active) in [2] and 18.3 µM (active) in assay [3].
Regarding `CSCCC1NC2(C(=O)Nc3c(C)cc(Cl)cc32)[C@@H]2C(=O)N(C3CCCC3)C(=O)[C@H]12` (some centres not stated), the EC50 in [4] is > 150 µM (inactive); in assay [5] it was > 38 µM (not active).
The like results for `CCOc1ccccc1OCCN1CCC(Cc2ccccc2)CC1` were, in that order, > 150 µM (inactive) and > 38 µM (not active).
As for `O=C1c2ccccc2C(=O)N1CCCCN(C(=O)c1cc2ccccc2oc1=O)c1ccc(F)cc1F`, the EC50 in assay [8], in [9] and in assay [10] was > 120 µM (not active) in each case.
Regarding `CCC(=O)c1ccc(OCC(=O)OCC(=O)N2CCc3ccccc3C2)cc1`, the half-maximal inhibitory concentration (IC50) in the assay “cells” is 17.3 µM (active).
For the compound `COc1ccc(-c2ccc([C@@H]3[C@@H](CO)N4CCCCN(C(=O)c5ccc6c(c5)OCO6)C[C@@H]34)cc2)cc1`, the AC50 in assay [1] was 5.97 µM (active).
On to `Fc1ccc(-c2cc3nc(-c4ccccc4)cc(N4CCN(CCN5CCOCC5)CC4)n3n2)cc1`, for which the EC50 in assay [11] was 7.58 µM (active); in [12] it was 4.9 µM (active); in [2], 85 µM (active); in assay [3], 71.2 µM (active).
For `O=C(NN=C(S)Nc1ccc(Cl)cc1)c1ccccc1OC(F)F`, the EC50 in assay [4] is 72.6 µM (active); in [5] it was 6.72 µM (active).
As to `CO[C@H]1CN(C)C(=O)c2cc(NC(=O)c3ccccc3F)ccc2OC[C@H](C)N(C)C[C@H]1C`, in assay [1], the AC50 is > 39 µM (inactive).
For `Cc1ccc(-c2nnn(CC(=O)Nc3ccc4nn(-c5ccccc5)nc4c3)n2)o1`, the half-inhibitory concentration (IC50) at Estrogen receptor is given as > 50 µM (not active).
On the same count and under the same terms, then `O=S(=O)(c1cccc(-c2cn3cccnc3n2)c1)N1CCCCCC1`, with 22.3 µM (active).
As for `COc1ccc(NC(=O)N(C)C[C@@H]2Oc3cc(-c4ccc(C)cc4)ccc3S(=O)(=O)N([C@@H](C)CO)C[C@H]2C)cc1`, in [1], the AC50 is 5.06 µM (active).
As for `O=Cc1ccc(Sc2nnc(-c3ccccc3)o2)c([N+](=O)[O-])c1`, the figures for the EC50 (at Protein RecA; in [2]; in assay [3]) were 5.46 µM (active), 18.1 µM (active) and 21.4 µM (active), respectively. Also, the AC50 in assay [13] is 9.51 µM (active).
Take `Cc1cccc(C2c3[nH]c4ccccc4c3CCN2C(=O)c2cc(-c3cccn3C)[nH]n2)n1` (configuration not stated): the EC50 is > 160 µM (inconclusive) in assay [4] and 3.22 µM (active) in assay [5].
Take `COc1cccc(NC(=O)c2ccc3nc(C)sc3c2)c1`: the EC50 was > 160 µM (inconclusive) in [4] and 1.53 µM (active) in assay [5].
Take `COc1ccc(/C=C2\CN(Cc3ccccc3)C/C(=C\c3ccc(OC)cc3)C2=O)cc1`: the EC50 is 5.52 µM (active) in [2] and 6.02 µM (active) in assay [3].
On to `c1ccc2c(c1)CSc1ccccc1N2`, for which the EC50 in assay [8], in assay [9] and in assay [10] was > 120 µM (not active) in each case.
Regarding `O=C(Nc1nnc(SCc2ccccc2Cl)s1)c1cccc([N+](=O)[O-])c1`, the IC50 at Fatty acid synthase was 11 µM (active).
For the compound `Brc1ccc(-c2nnc(-c3cccnc3)c3conc23)cc1`, the IC50 on Estrogen receptor was 6.62 µM (active).
For `O=Nc1c(O)n(Cc2cccc(C(F)(F)F)c2)c2ccccc12`, the EC50 in assay [4] was > 160 µM (inactive); in assay [5] it was 1.89 µM (active).
